# Experimental data as given in PubChem BioAssay (NCI).
#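 Each compound was tested at five concentrations against cells in 96-well plates for 48 hours. The concentration for 50% growth inhibition is given as GI50. At the TGI there is no net growth.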
# Key:
# Assay in all cases: DTP human tumour cell line panel, 48 h
# [1] = tested on: T-47D breast
# [2] = tested on: A549 NSCLC
# [3] = tested on: MDA-MB-231 breast
# [4] = tested on: OVCAR-8 ovarian
# [5] = tested on: 786-0 renal
# [6] = tested on: HT29 colon
# [7] = tested on: COLO 205 colon
# [8] = tested on: TK-10 renal
# [9] = tested on: PC-3 prostate
# [10] = tested on: M14 melanoma
# [11] = tested on: SK-MEL-5 melanoma
# [12] = tested on: NCI-H23 lung
# [13] = tested on: ACHN renal
# [14] = tested on: MDA-MB-435
# [15] = tested on: SNB-19 CNS
# [16] = tested on: SNB-75 CNS
# [17] = tested on: HL-60(TB) leukemia
# [18] = tested on: OVCAR-3 ovarian
# [19] = tested on: HCT-15 colon
# [20] = tested on: MDA-MB-468 breast
# [21] = tested on: SF-295 CNS
# [22] = tested on: OVCAR-4 ovarian
# [23] = tested on: RPMI-8226 leukemia
# [24] = tested on: NCI-H226 lung
# [25] = tested on: SN12C renal
# [26] = tested on: NCI-H460 lung
# [27] = tested on: EKVX NSCLC
# [28] = tested on: IGROV1 ovarian
# [29] = tested on: MOLT-4 leukemia
# [30] = tested on: BT-549 breast
# [31] = tested on: KM12 colon
# [32] = tested on: LOX IMVI melanoma
# [33] = tested on: NCI/ADR-RES ovarian
# [34] = tested on: HCT-116 colon
# [35] = tested on: SK-MEL-28 melanoma
# [36] = tested on: RXF 393 renal
# [37] = tested on: U251 CNS
# [38] = tested on: OVCAR-5 ovarian
# [39] = tested on: MALME-3M melanoma
# [40] = tested on: SW-620 colon
# [41] = tested on: CCRF-CEM leukemia
# [42] = tested on: UO-31 renal
# [43] = tested on: SF-268 CNS
# [44] = tested on: A498 renal
# [45] = tested on: SK-OV-3 ovarian
# [46] = tested on: HCC-2998 colon
# [47] = tested on: SF-539 CNS
# [48] = tested on: K-562 leukemia
# [49] = tested on: UACC-62 melanoma
# [50] = tested on: UACC-257 melanoma
# [51] = tested on: DU-145 prostate
# [52] = tested on: SK-MEL-2 melanoma
# [53] = tested on: HOP-92 NSCLC
# [54] = tested on: CAKI-1 renal
# [55] = tested on: MCF7 breast
# [56] = tested on: HOP-62 NSCLC
# [57] = tested on: SR leukemia
compound,measurement,setting,value
COc1cc2c(cc1OC)/C(=C\c1sc(Nc3ccc(O)cc3)nc1O)C(C(=O)O)=N2,GI50,[1],2.91 µM
same,TGI,[1],> 100 µM
same,GI50,[2],21.6 µM
same,TGI,[2],> 100 µM
same,GI50,[3],1.32 µM
same,TGI,[3],63.3 µM
same,GI50,[4],0.775 µM
same,TGI,[4],> 100 µM
same,GI50,[5],0.513 µM
same,TGI,[5],45.1 µM
same,GI50,[6],2.83 µM
same,TGI,[6],26 µM
same,GI50,[7],1.44 µM
same,TGI,[7],9.07 µM
same,GI50,[8],5.73 µM
same,TGI,[8],> 100 µM
same,GI50,[9],0.666 µM
same,TGI,[9],> 100 µM
same,GI50,[10],0.376 µM
same,TGI,[10],30 µM
same,GI50,[11],0.51 µM
same,TGI,[11],28.4 µM
same,GI50,[12],0.815 µM
same,TGI,[12],41.8 µM
same,GI50,[13],6.53 µM
same,TGI,[13],> 100 µM
same,GI50,[14],0.187 µM
same,TGI,[14],0.389 µM
same,GI50,[15],0.462 µM
same,TGI,[15],27.8 µM
same,GI50,[16],0.217 µM
same,TGI,[16],2.95 µM
same,GI50,[17],0.291 µM
same,TGI,[17],0.986 µM
same,GI50,[18],0.287 µM
same,TGI,[18],0.797 µM
same,GI50,[19],0.783 µM
same,TGI,[19],> 100 µM
same,GI50,[20],1.12 µM
same,TGI,[20],5.29 µM
same,GI50,[21],0.498 µM
same,TGI,[21],14.1 µM
same,GI50,[22],4.57 µM
same,TGI,[22],> 100 µM
same,GI50,[23],5.17 µM
same,TGI,[23],> 100 µM
same,GI50,[24],16.6 µM
same,TGI,[24],> 100 µM
same,GI50,[25],2.05 µM
same,TGI,[25],> 100 µM
same,GI50,[26],0.954 µM
same,TGI,[26],> 100 µM
same,GI50,[27],11.2 µM
same,TGI,[27],> 100 µM
same,GI50,[28],2.7 µM
same,TGI,[28],> 100 µM
same,GI50,[29],0.446 µM
same,TGI,[29],> 100 µM
same,GI50,[30],0.654 µM
same,TGI,[30],75 µM
same,GI50,[31],0.557 µM
same,TGI,[31],> 100 µM
same,GI50,[32],0.501 µM
same,TGI,[32],> 100 µM
same,GI50,[33],> 100 µM
same,TGI,[33],> 100 µM
same,GI50,[34],0.489 µM
same,TGI,[34],> 100 µM
same,GI50,[35],0.842 µM
same,TGI,[35],> 100 µM
same,GI50,[36],0.527 µM
same,TGI,[36],3.21 µM
same,GI50,[37],0.353 µM
same,TGI,[37],16.7 µM
same,GI50,[38],4.51 µM
same,TGI,[38],> 100 µM
same,GI50,[39],0.336 µM
same,TGI,[39],> 100 µM
same,GI50,[40],0.449 µM
same,TGI,[40],> 100 µM
same,GI50,[41],0.413 µM
same,TGI,[41],> 100 µM
same,GI50,[42],4.2 µM
same,TGI,[42],> 100 µM
same,GI50,[43],0.581 µM
same,TGI,[43],> 100 µM
same,GI50,[44],32.1 µM
same,TGI,[44],> 100 µM
same,GI50,[45],0.817 µM
same,TGI,[45],> 100 µM
same,GI50,[46],0.631 µM
same,TGI,[46],> 100 µM
same,GI50,[47],0.456 µM
same,TGI,[47],2.76 µM
same,GI50,[48],0.369 µM
same,TGI,[48],> 100 µM
same,GI50,[49],0.498 µM
same,TGI,[49],> 100 µM
same,GI50,[50],1.91 µM
same,TGI,[50],> 100 µM
same,GI50,[51],0.588 µM
same,TGI,[51],33.3 µM
same,GI50,[52],0.586 µM
same,TGI,[52],86.3 µM
same,GI50,[53],5.89 µM
same,TGI,[53],91.6 µM
same,GI50,[54],95.5 µM
same,TGI,[54],> 100 µM
same,GI50,[55],0.394 µM
same,TGI,[55],> 100 µM
same,GI50,[56],0.62 µM
same,TGI,[56],59.1 µM
same,GI50,[57],0.277 µM
same,TGI,[57],> 100 µM
